Key:
Type in all cases: in vivo
[1] = system: giant foxtail (Setaria faberi); test: Test A pre-/postemergence plant response
Method in brief: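 Seeds in loam soil/sand blend treated preemergence by directed soil spray, with simultaneous postemergence spray on 2–10 cm plants at one- to two-leaf stage; compounds in non-phytotoxic solvent with surfactant. Injury visually rated versus untreated controls after about 10 days in greenhouse, 0 (no effect) to 100 (complete control).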

[2] = system: bermudagrass (Cynodon dactylon); test: Test B pre-/postemergence plant response; details: for Bermudagrass plant response rating: 8 g ai/ha
Method in brief: (§1)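 Preemergence and postemergence (plants 2-18 cm, 1- to 4-leaf stage) applications used test chemicals in a non-phytotoxic solvent with surfactant. Plants were held in a greenhouse 13 to 15 days, then rated visually against controls on a 0-100 scale (0 no effect, 100 complete control).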

[3] = system: blackgrass (Alopecurus myosuroides); test: Test B pre-/postemergence plant response; details: for Blackgrass plant response rating: 8 g ai/ha
Method in brief: as §1

[4] = system: common (oilseed) sunflower (Helianthus annuus); test: Test B pre-/postemergence plant response; details: Preemergence
Method in brief: as §1

[5] = system: downy bromegrass (Bromus tectorum); test: Test B pre-/postemergence plant response; details: for Bromegrass, Downy plant response rating: 8 g ai/ha
Method in brief: as §1

[6] = system: giant foxtail (Setaria faberii); test: Test B pre-/postemergence plant response; details: for Foxtail, Giant plant response rating: 8 g ai/ha
Method in brief: as §1

[7] = system: goosegrass (Eleusine indica); test: Test B pre-/postemergence plant response; details: for Goosegrass plant response rating: 8 g ai/ha
Method in brief: as §1

[8] = system: johnsongrass (Sorghum halepense); test: Test B pre-/postemergence plant response; details: for Johnsongrass plant response rating: 8 g ai/ha
Method in brief: as §1

[9] = system: pigweed (Amaranthus retroflexus); test: Test B pre-/postemergence plant response; details: for Pigweed plant response rating: 8 g ai/ha
Method in brief: as §1

soybean (Glycine max) = test: Test B pre-/postemergence plant response; details: for Soybean plant response rating: 8 g ai/ha
Method in brief: as §1

[10] = system: velvetleaf (Abutilon theophrasti); test: Test B pre-/postemergence plant response; details: for Velvetleaf plant response rating: 8 g ai/ha
Method in brief: as §1

[11] = system: wheat (Triticum aestivum); test: Test B pre-/postemergence plant response; details: for Wheat plant response rating: 8 g ai/ha
Method in brief: as §1

[12] = Postemergence, 16 g ai/ha, scale 0 to 100
[13] = Postemergence, 31 g ai/ha, scale 0 to 100, 0 no effect, 100 complete control
[14] = Postemergence, 62 g ai/ha, scale 0 to 100
[15] = Preemergence, 16 g ai/ha, scale 0 to 100 (0 no effect, 100 complete control)
[16] = Preemergence, 31 g ai/ha, 0 to 100 scale, 0 no effect, 100 complete control
[17] = Preemergence, 62 g ai/ha, scale 0 to 100

## CCc1cc(-c2ccc(F)cc2)nn1-c1c(O)cnn(C)c1=O [Compound 25]
[1]; Postemergence, 31 g ai/ha, 0 to 100 scale (0 no effect, 100 complete control)
  Plant response rating, Foxtail, Giant: 90
[1]; Postemergence, 125 g ai/ha, 0 to 100 scale, 0 no effect, 100 complete control
  Plant response rating, Foxtail, Giant: 100
[1]; Preemergence, 31 g ai/ha, 0 to 100 scale, 0 is no effect, 100 is complete control
  Plant response rating, Foxtail, Giant: 40
[1]; Preemergence, 125 g ai/ha, 0 to 100 scale (0 no effect, 100 complete control)
  Plant response rating, Foxtail, Giant: 100
[2]; postemergence, 0-100 scale
  Bermudagrass plant response rating: 0
[2]; [12]
  Plant response rating, Bermudagrass: 0
[2]; [13]
  Plant response rating, Bermudagrass: 60
[2]; [14]
  Plant response rating, Bermudagrass: 60
[2]; Preemergence, scale 0 to 100 (0 no effect, 100 complete control)
  Bermudagrass plant response rating: 0
[2]; [15]
  Plant response rating, Bermudagrass: 70
[2]; [16]
  Plant response rating, Bermudagrass: 80
[2]; [17]
  Plant response rating, Bermudagrass: 100
[3]; postemergence, 0-100 scale
  Blackgrass plant response rating: 0
[3]; [12]
  Plant response rating, Blackgrass: 40
[3]; [13]
  Plant response rating, Blackgrass: 75
[3]; [14]
  Plant response rating, Blackgrass: 95
[3]; [17]
  Plant response rating, Blackgrass: 90
[3]; Preemergence, scale 0 to 100
  Blackgrass plant response rating: 70
[4]; 16 g ai/ha, scale 0 to 100 (0 no effect, 100 complete control)
  Plant response rating, Sunflower: 0
[4]; 31 g ai/ha, 0 to 100 scale, 0 no effect, 100 complete control
  Plant response rating, Sunflower: 0
[4]; 62 g ai/ha, scale 0 to 100
  Plant response rating, Sunflower: 0
[4]; 8 g ai/ha, scale 0 to 100
  Sunflower plant response rating: 0
[5]; postemergence, 0-100 scale
  Bromegrass, Downy plant response rating: 0
[5]; [12]
  Plant response rating, Bromegrass, Downy: 0
[5]; [13]
  Plant response rating, Bromegrass, Downy: 10
[5]; [14]
  Plant response rating, Bromegrass, Downy: 15
[5]; [15]
  Plant response rating, Bromegrass, Downy: 0
[5]; [16]
  Plant response rating, Bromegrass, Downy: 0
[5]; [17]
  Plant response rating, Bromegrass, Downy: 0
[5]; Preemergence, scale 0 to 100
  Bromegrass, Downy plant response rating: 0
[6]; postemergence, 0-100 scale
  Foxtail, Giant plant response rating: 70
[6]; [12]
  Plant response rating, Foxtail, Giant: 85
[6]; [13]
  Plant response rating, Foxtail, Giant: 85
[6]; [14]
  Plant response rating, Foxtail, Giant: 95
[6]; [15]
  Plant response rating, Foxtail, Giant: 60
[6]; [16]
  Plant response rating, Foxtail, Giant: 90
[6]; [17]
  Plant response rating, Foxtail, Giant: 100
[6]; Preemergence, scale 0 to 100
  Foxtail, Giant plant response rating: 50
[7]; postemergence, 0-100 scale
  Goosegrass plant response rating: 0
[7]; [12]
  Plant response rating, Goosegrass: 0
[7]; [13]
  Plant response rating, Goosegrass: 0
[7]; [14]
  Plant response rating, Goosegrass: 50
[7]; [15]
  Plant response rating, Goosegrass: 50
[7]; [16]
  Plant response rating, Goosegrass: 75
[7]; [17]
  Plant response rating, Goosegrass: 85
[7]; Preemergence, scale 0 to 100
  Goosegrass plant response rating: 0
[8]; postemergence, 0-100 scale
  Johnsongrass plant response rating: 0
[8]; [12]
  Plant response rating, Johnsongrass: 0
[8]; [13]
  Plant response rating, Johnsongrass: 0
[8]; [14]
  Plant response rating, Johnsongrass: 30
[8]; [15]
  Plant response rating, Johnsongrass: 0
[8]; [16]
  Plant response rating, Johnsongrass: 0
[8]; [17]
  Plant response rating, Johnsongrass: 0
[8]; Preemergence, scale 0 to 100
  Johnsongrass plant response rating: 0
[9]; postemergence, 0-100 scale
  Pigweed plant response rating: 0
[9]; [12]
  Plant response rating, Pigweed: 0
[9]; [13]
  Plant response rating, Pigweed: 0
[9]; [14]
  Plant response rating, Pigweed: 10
[9]; [15]
  Plant response rating, Pigweed: 0
[9]; [16]
  Plant response rating, Pigweed: 0
[9]; [17]
  Plant response rating, Pigweed: 80
[9]; Preemergence, scale 0 to 100
  Pigweed plant response rating: 0
Soybean (Glycine max); postemergence, 0-100 scale
  Soybean plant response rating: 0
Soybean (Glycine max); [12]
  Plant response rating, Soybean: 0
Soybean (Glycine max); [13]
  Plant response rating, Soybean: 0
Soybean (Glycine max); [14]
  Plant response rating, Soybean: 0
Soybean (Glycine max); [15]
  Plant response rating, Soybean: 0
Soybean (Glycine max); [16]
  Plant response rating, Soybean: 0
Soybean (Glycine max); [17]
  Plant response rating, Soybean: 0
Soybean (Glycine max); Preemergence, scale 0 to 100
  Soybean plant response rating: 0
[10]; postemergence, 0-100 scale
  Velvetleaf plant response rating: 0
[10]; [12]
  Plant response rating, Velvetleaf: 0
[10]; [13]
  Plant response rating, Velvetleaf: 0
[10]; [14]
  Plant response rating, Velvetleaf: 0
[10]; [15]
  Plant response rating, Velvetleaf: 0
[10]; [16]
  Plant response rating, Velvetleaf: 0
[10]; [17]
  Plant response rating, Velvetleaf: 0
[10]; Preemergence, scale 0 to 100
  Velvetleaf plant response rating: 0
[11]; postemergence, 0-100 scale
  Wheat plant response rating: 0
[11]; [12]
  Plant response rating, Wheat: 0
[11]; [13]
  Plant response rating, Wheat: 0
[11]; [14]
  Plant response rating, Wheat: 0
[11]; [15]
  Plant response rating, Wheat: 0
[11]; [16]
  Plant response rating, Wheat: 0
[11]; [17]
  Plant response rating, Wheat: 15
[11]; Preemergence, scale 0 to 100
  Wheat plant response rating: 0
